ChEMBL document CHEMBL4138268, “Discovery of Spiro Oxazolidinediones as Selective, Orally Bioavailable Inhibitors of p300/CBP Histone Acetyltransferases” (ACS Med Chem Lett, 2018)

Tests used:
[1] = tested on: Mus musculus; assay: Plasma clearance in mouse at 1 mg/kg, iv; assay type: ADME, organism-based; settings: in vivo
[2] = Protein binding in mouse plasma; assay type: ADME, cell-free
[3] = species: Mus musculus; assay: Unbound plasma clearance in mouse; assay type: ADME, organism-based; settings: in vivo
[4] = AUC in mouse at 10 mg/kg, po; assay type: ADME, organism-based; settings: in vivo
[5] = Unbound intrinsic clearance in mouse microsomes; assay type: ADME, Microsome
[6] = Permeability of the compound by PAMPA; assay type: ADME
[7] = Unbound fraction in human microsomes; assay type: ADME, Microsome
[8] = Oral bioavailability in mouse; assay type: ADME, organism-based; settings: in vivo
[9] = Clearance in mouse microsomes; assay type: ADME, Microsome
[10] = target: CREB-binding protein/Histone acetyltransferase p300 (Homo sapiens, UniProt Q09472+Q92793); assay: Inhibition of p300/CBP (unknown origin) using biotinylated synthetic Histone H4 Peptide as substrate pretreated for 30 mins followed by substrate addition measured after 1 hr by radiometric scintillation proximity assay; assay type: protein assay

With `CNC(=O)Nc1ccc2c(c1)CC[C@@]21OC(=O)N(CC(=O)N(Cc2ccccc2)[C@@H](C)C2CC2)C1=O` the CL [1] was 27 mL/min/kg, the PPB [2] was 99.1% and the CL free [3] was 3100 mL/min/kg. It also gave an AUC [4] of 2500 ng·h/mL, a CL free [5] of 3130 mL/min/kg and a permeability [6] of 2.35 ×10⁻⁶ cm/s. It also gave a Fu [7] of 0.48, a bioavailability [8] of 40% and a CLint scaled [9] of 1780 mL/min/kg.
Compound `CC(C1CC1)N(Cc1ccccc1)C(=O)CN1C(=O)NC(Cc2c[nH]c3ccccc23)C1=O` (stereo not drawn) has an IC50 [10] of 5.1 µM.
With `CNC(=O)Nc1ccc2c(c1)CC[C@]21NC(=O)N(CC(=O)N(Cc2ccccc2)[C@@H](C)C2CC2)C1=O` the permeability [6] was 0.47 ×10⁻⁶ cm/s.
Compound `C[C@@H](C1CC1)N(Cc1ccccc1)C(=O)CN1C(=O)NC(c2ccccc2)C1=O` (stereo partly drawn) has an IC50 [10] of 7.6 µM.
With `Cc1ccccc1C1NC(=O)N(CC(=O)N(Cc2ccccc2)[C@@H](C)C2CC2)C1=O` (stereo partly drawn) the IC50 [10] was 2.7 µM.
